According to patent US20030068615A1, “Polypeptides that bind HIV gp120 and related nucleic acids, antibodies, compositions, and methods of use” (priority 1999, published 2003):
Where two headings read alike, the source gives them in different places.

Molecular target: HIV-1LAI envelope gp120 (Human immunodeficiency virus type 1 group M subtype B, UniProt P03377)
Assay type: binding
Settings: for Counts per 20′ Average-background: CCR5 18-mer scan; for Counts per 20′ Average-background / percentage of binding of mutant polypeptide compared to wild-type polypeptide, gp120: radiolabeled HIV-1LAI gp120; for Relative % of Control: mean of two syntheses and binding experiments ± average deviation, wild-type = 100%; for percentage of binding of mutant polypeptide compared to wild-type polypeptide, gp120: CCR5 alanine mutant peptide
[1] = Panel D, 9-mers and 12-mers of CD4, empty control […]
[2] = Panel B, 15-mers and 18-mers of CD4, empty control 575
[3] = STRL33 18-mer scan, background subtracted, first of two count columns
[4] = STRL33 18-mer scan, background subtracted, second of two count columns
[5] = CXCR4 18-mer scan, background subtracted, empty control 0
[6] = CXCR4 18-mer scan, empty control 412

Sequence | Relative % of Control (CXCR4 (1-18) alanine variants) [%] | Relative % of Control (CCR5 (1-18) alanine variants) [%] | further results
LVFFQKHIAKRFCKCCSI | – | – | Counts per 20′ Average-background (background subtracted): 76 counts per 20′
LVFGLTANS | – | – | COUNTS of radiolabeled gp120 retained [1]: 522 counts
LVFGLTANSDTH | – | – | COUNTS of radiolabeled gp120 retained [1]: 586 counts
LVFGLTANSDTHLLQ | – | – | COUNTS of radiolabeled gp120 retained [2]: 609 counts
LVFGLTANSDTHLLQGQS | – | – | COUNTS of radiolabeled gp120 retained [2]: 564 counts
LVISIFYHKLQSLTDVFL [STRL33 segment 53-70] | – | – | radioactive counts recorded in twenty minutes [3]: 1620.5 counts; radioactive counts recorded in twenty minutes [4]: 1780.5 counts
LVMGYQKKLRSMTDKYRL [CXCR4 segment 61-78] | – | – | radioactive counts recorded in twenty minutes [5]: 105 counts; radioactive counts recorded in twenty minutes [6]: 517 counts
LVSLPQIIYGNVFNLDKL | – | – | radioactive counts recorded in twenty minutes [3]: 91.5 counts; radioactive counts recorded in twenty minutes [4]: −15.5 counts
LWDQGNFPLIIKNLK | – | – | COUNTS of radiolabeled gp120 retained [2]: 502 counts
LWDQGNFPLIIKNLKIED | – | – | COUNTS of radiolabeled gp120 retained [2]: 582 counts
LYAFLGAKFKTSAQHALT [CXCR4 segment 301-318] | – | – | radioactive counts recorded in twenty minutes [5]: 156 counts; radioactive counts recorded in twenty minutes [6]: 568 counts
MAEHDYHEDYGFSSFNDS [STRL33 segment 1-18] | – | – | radioactive counts recorded in twenty minutes [3]: 1178.5 counts; radioactive counts recorded in twenty minutes [4]: 1320.5 counts; Binding Results For Window Length (counts bound-background), 9 (STRL33 amino terminus, 9-mer starting at the first residue of the printed sequence, background subtracted): 160 counts; Binding Results For Window Length (counts bound-background), 12 (STRL33 amino terminus, 12-mer starting at the first residue of the printed sequence, background subtracted): 625 counts; Binding Results For Window Length (counts bound-background), 15 (STRL33 amino terminus, 15-mer starting at the first residue of the printed sequence, background subtracted): 1239 counts; Binding Results For Window Length (counts bound-background), 18 (STRL33 amino terminus, 18-mer starting at the first residue of the printed sequence, background subtracted): 1386 counts
MAGISIYTSDNYTEEMGS [CXCR4 (1-18) variant E2A] | 36 ± 0.3 | – | –
MAVFLLTQMPFNLMKFIR [STRL33 segment 237-254] | – | – | radioactive counts recorded in twenty minutes [3]: 2263.5 counts; radioactive counts recorded in twenty minutes [4]: 2842.5 counts
MAYQVSSPIYDINYYTSE [CCR5 (1-18) variant D2A] | – | 125 ± 8 | –
MCKSLLGIYTINFYTSML | – | – | radioactive counts recorded in twenty minutes [3]: 1505.5 counts; radioactive counts recorded in twenty minutes [4]: 1283.5 counts
MDAQVSSPIYDINYYTSE [CCR5 (1-18) variant Y3A] | – | 51 ± 2 | –
MDYAVSSPIYDINYYTSE [CCR5 (1-18) variant Q4A] | – | 104 ± 7 | percentage of binding of mutant polypeptide compared to wild-type polypeptide, gp120: 104%
MDYQASSPIYDINYYTSE [CCR5 (1-18) variant V5A] | – | 82 ± 3 | –
MDYQVASPIYDINYYTSE | – | 124 ± 3 | –
MDYQVSAPIYDINYYTSE | – | 56 ± 2 | –
MDYQVSSAIYDINYYTSE | – | 157 ± 2 | –
MDYQVSSPAYDINYYTSE [CCR5 (1-18) variant printed 19A] | – | 24 ± 7 | –

Sequence | Relative % of Control (CXCR4 (1-18) alanine variants) [%] | Relative % of Control (CCR5 (1-18) alanine variants) [%] | further results
MDYQVSSPIADINYYTSE [CCR5 (1-18) variant Y10A] | – | 19 ± 6 | percentage of binding of mutant polypeptide compared to wild-type polypeptide, gp120: 19.2%
MDYQVSSPIYAINYYTSE [CCR5 (1-18) variant D11A] | – | 63 ± 22 | percentage of binding of mutant polypeptide compared to wild-type polypeptide, gp120: 62.8%
MDYQVSSPIYDANYYTSE | – | 14 ± 1 | –
MDYQVSSPIYDIAYYTSE | – | 253 ± 19 | –
MDYQVSSPIYDINAYTSE [CCR5 (1-18) variant Y14A] | – | 15 ± 0.3 | percentage of binding of mutant polypeptide compared to wild-type polypeptide, gp120: 14.6%
MDYQVSSPIYDINYATSE [CCR5 (1-18) variant Y15A] | – | 21 ± 5 | percentage of binding of mutant polypeptide compared to wild-type polypeptide, gp120: 21%
MDYQVSSPIYDINYYASE | – | 78 ± 34 | –
MDYQVSSPIYDINYYTAE | – | 64 ± 6 | –
MDYQVSSPIYDINYYTSA [CCR5 (1-18) variant E18A] | – | 4 ± 2 | percentage of binding of mutant polypeptide compared to wild-type polypeptide, gp120: 4.1%
MDYQVSSPIYDINYYTSE | – | 100 | Counts per 20′ Average-background (background subtracted): 735 counts per 20′
MEAISIYTSDNYTEEMGS | 101 ± 3 | – | –
MEGASIYTSDNYTEEMGS | 6 ± 0.3 | – | –
MEGIAIYTSDNYTEEMGS [CXCR4 (1-18) variant S5A] | 133 ± 5 | – | –
MEGISAYTSDNYTEEMGS | 2 ± 1 | – | –
MEGISIATSDNYTEEMGS | 7 ± 0.4 | – | –
MEGISIYASDNYTEEDGS | 97 ± 10 | – | –
MEGISIYTADNYTEEMGS | 70 ± 4 | – | –
MEGISIYTSANYTEEMGS | 71 ± 8 | – | –
MEGISIYTSDAYTEEMGS | 38 ± 0.4 | – | –
MEGISIYTSDNATEEMGS | 28 ± 2 | – | –
MEGISIYTSDNYAEEMGS | 70 ± 6 | – | –
MEGISIYTSDNYTAEMGS | 72 ± 1 | – | –
MEGISIYTSDNYTEAMGS | 56 ± 7 | – | –
